The term EC50 denotes the midpoint of the concentration-response curve.

Converted amounts (≈) assume the structure as drawn. Structures can show the parent of a compound that is named as a salt.

The first experiment relates to A549/SN-38-4 cells. Nature of the experiment: Effect of overcoming SN-38 resistance of BCRP-expressing A549/SN-38-4 cells. Conditions: Homo sapiens, A549, 48 h, concentration for 50% reduction of relative SN-38 resistance value (IC50 A549/SN-38-4 / IC50 A549); 48 hours culture with SN-38; read-out: Effect of overcoming resistance EC50. Type of experiment: cell-based, human. Here is the method: The human lung cancer A549 cells or the A549/SN-38-4 cells were suspended in a Ham's F-12 medium containing 10% FBS, 100 U/mL of penicillin, and 100 μg/mL of streptomycin (10% FBS/Ham's F-12), and the resultant suspension was inoculated into a 96-well microplate (2×10^3 cells/50 μL/well), followed by culturing at 5% CO2 and 37° C. overnight. […] After completion of culturing, the number of viable cells was counted by use of a viable cell counting reagent [TetraColor ONE (trademark), product of Seikagaku Corporation] according to the attached instruction manual. […] The greater the relative resistance value, the higher the level of acquired resistance.
In the case of `COc1ccc(/C(C#N)=C/c2cc(-c3ccc(F)cc3)on2)cc1OC` [Compound 76, (Z)-2-(3,4-dimethoxy-phenyl)-3-[5-(4-fluoro-phenyl)-isoxazol-3-yl]-acrylonitrile], the EC50 worked out at 0.002 µg/mL (≈ 0.00571 µM).
Regarding `COc1ccc2nc(Cl)c(/C=C(\C#N)n3nnc4ccccc43)cc2c1` [Compound 83, (E)-2-benzotriazol-1-yl-3-(2-chloro-6-methoxy-quinolin-3-yl)-acrylonitrile], the concentration giving a half-maximal response (EC50) came out at 0.19 µg/mL (≈ 0.525 µM).
Still for that read-out and setting: to `COc1ccc(/C(C#N)=C/c2cc3ccccc3nc2Cl)cc1OC` [Compound 70, (Z)-3-(2-chloro-quinolin-3-yl)-2-(3,4-dimethoxy-phenyl)-acrylonitrile] belongs 0.011 µg/mL (≈ 0.0314 µM); to `COc1ccc(/C(C#N)=C/c2ccc(N3CCCCC3)o2)cc1OC` [Compound 24, (Z)-2-(3,4-dimethoxy-phenyl)-3-(5-piperidin-1-yl-furan-2-yl)-acrylonitrile], 0.034 µg/mL (≈ 0.1 µM); to `COc1ccc(/C(C#N)=C/c2cn(C)c3ccccc23)cc1OC` [Compound 68, (Z)-2-(3,4-dimethoxy-phenyl)-3-(1-methyl-1H-indol-3-yl)-acrylonitrile], 0.011 µg/mL (≈ 0.0346 µM).
Same read-out and setting: to `COc1ccc(/C(C#N)=C/c2csc3ccccc23)cc1OC` [Compound 66, (Z)-3-benzo[b]thiophen-3-yl-2-(3,4-dimethoxy-phenyl)-acrylonitrile] belongs 0.037 µg/mL (≈ 0.115 µM).
As for `N#C/C(=C\c1ccnc2ccccc12)c1ccsc1` [Compound 88, (Z)-3-quinolin-4-yl-2-thiophen-3-yl-acrylonitrile], the EC50 amounted to 0.07 µg/mL (≈ 0.267 µM).
On the same count and under the same terms, to `COc1ccc(/C(C#N)=C/c2ccnc3ccccc23)cc1OC` [Compound 65, (Z)-2-(3,4-dimethoxy-phenyl)-3-quinolin-4-yl-acrylonitrile] belongs 0.011 µg/mL (≈ 0.0348 µM); to `COc1ccc(/C(C#N)=C/c2nc3ccccc3n2C)cc1OC` [Compound 67, (Z)-2-(3,4-dimethoxy-phenyl)-3-(1-methyl-1H-benzimidazol-2-yl)-acrylonitrile], 0.1 µg/mL (≈ 0.313 µM).
Still for that read-out and setting: to `CCN(CC)CCCNC(=O)CCC(=O)OC1CCN(c2ccc(/C=C(\C#N)c3ccc(OC)c(OC)c3)s2)CC1` [Compound 61, 1-[5-[(Z)-2-cyano-2-(3,4-dimethoxy-phenyl)-vinyl]-thiophen-2-yl]-piperidin-4-yl N-(3-diethylamino-propyl)-succinamate hydrochloride] belongs 0.044 µg/mL; to `N#C/C(=C\c1cc2ccccc2o1)c1coc2ccccc12` [Compound 91, (Z)-3-benzofuran-2-yl-2-benzofuran-3-yl-acrylonitrile], 0.52 µg/mL (≈ 1.82 µM).
Turning to `COc1ccc(/C(C#N)=C/c2ccc3ccccc3n2)cc1OC` [Compound 78, (Z)-2-(3,4-dimethoxy-phenyl)-3-quinolin-2-yl-acrylonitrile], the EC50 turned out to be 0.077 µg/mL (≈ 0.243 µM).

Still in this experiment, the particulars now being: concentration for 50% reduction of relative SN-38 resistance value (IC50 A549/SN-38-4 / IC50 A549); 48 hours culture with SN-38.
Regarding “(E)-2-benzothiazol-1-yl-3-(3,4-dimethoxy-phenyl)-acrylonitrile [Compound 71]”, the “Effect of overcoming resistance EC50” value worked out at 0.013 µg/mL.

Still in this experiment, the particulars now being: concentration for 50% reduction of relative SN-38 resistance value (IC50 A549/SN-38-4 / IC50 A549); 48 hours culture with SN-38; hydrochloride.
In the case of `COc1ccc(/C(C#N)=C/c2ccc(N(C)CCN(C)C)s2)cc1OC` [Compound 15, (Z)-2-(3,4-dimethoxy-phenyl)-3-{5-[(2-dimethylamino-ethyl)-methyl-amino]-thiophen-2-yl}-acrylonitrile hydrochloride], the “Effect of overcoming resistance EC50” value is 0.2 µg/mL.
For the compound `COc1ccc(/C=C(\C#N)c2ccc(OC)c(OC)c2)cn1` [Compound 37, (Z)-2-(3,4-dimethoxy-phenyl)-3-(6-methoxy-pyridin-3-yl)-acrylonitrile hydrochloride], the “Effect of overcoming resistance EC50” value was determined as 0.12 µg/mL.

Staying with this experiment, now noted: concentration for 50% reduction of relative SN-38 resistance value (IC50 A549/SN-38-4 / IC50 A549); 48 hours culture with SN-38; nitrate.
Regarding `COc1ccc(/C(C#N)=C/c2ccc(N3CCN(CCO)CC3)s2)cc1OC` [Compound 102, (Z)-2-(3,4-dimethoxy-phenyl)-3-{5-[4-(2-hydroxy-ethyl)-piperazin-1-yl]-thiophen-2-yl}-acrylonitrile nitrate], the “Effect of overcoming resistance EC50” value amounted to 0.017 µg/mL.

Values taken from patent publication US8697742B2, “BCRP/ABCG2 inhibitor” (Kabushiki Kaisha Yakult Honsha, priority 2005, dated 2014).
